Measurements published in paper PMC12529750 (Emerging Microbes & Infections, 2025).

What was measured:
[1] = tested on: SARS-CoV-2 original virus (SARS-CoV-2/human/Denmark/DK-AHH1/2020); experiment: microbe, parasite or virus in culture; assay type: cell-based
[2] = tested on: VeroE6 and A549-hACE2 cells
[3] = human, in vivo; cited from earlier work
[4] = Severe acute respiratory syndrome coronavirus 2
[5] = Severe acute respiratory syndrome coronavirus 2, Vero C1008

Cn1cnc(Cn2c(=O)[nH]/c(=N\c3cc4cn(C)nc4cc3Cl)n(Cc3cc(F)c(F)cc3F)c2=O)n1 [ENS, Ensitrelvir]
EC50 [1, 4]: 100 nM | EC50 [1, 5]: 420 nM | Cytotoxicity (cell viability, CC50) [2]: low | Cmax [3]: 57 µM

CC(C)(C)[C@H](NC(=O)C(F)(F)F)C(=O)N1C[C@H]2[C@@H]([C@H]1C(=O)N[C@H](C#N)C[C@@H]1CCNC1=O)C2(C)C [NIR, Nirmatrelvir]
EC50 [1, 4]: 40 nM | EC50 [1, 5]: 2900 nM
